Reference: patent US20220400680A1, “USE OF ACYLCYANAMIDES OR SALTS THEREOF FOR REGULATING PLANT GROWTH” (Alzchem Trostberg GmbH, priority 2019, published 2022)

Assays:
[1] = system: Table cherry, type Burlat (C3); experiment: Greenhouse test, cut cherry branches C3 dipped in test solution, bud development stage; type: in vivo, Prunus avium; design: key to Bud development stage, cherry branches C3: Stage 0: Buds unchanged; Stage 1: Buds slightly swollen, first green tips visible; Stage 2: strongly swollen, green buds; Stage 3: Buds before breaking open, leaf or flower root already visible; Stage 4: Flower buds fully developed, but still closed, white petals already visible. In the case of the grapevine, stage 4 was the unfolding of the first leaves; Stage 5: Flowers fully open or, in the case of grapevine, unfolding of the flower roots (“Gescheine”) on the fully leafed sprouts
Description: Greenhouse tests were conducted using cut fruit tree branches placed in water jars and maintained under controlled conditions with temperature regulation at approximately 22° C. and natural lighting. C3: Table Cherry, Type Burlat Table cherry: Prunus avium type Bigarreau Burlat or […] is a strong-growing somewhat sparse growing sweet cherry tree with horizontal side sprouts. The type has been known since 1930 and is one of the most important types in commercial cultivation. […] Medium but regular yields identify the type as a secondary type for early and dry areas. […] The test solutions were prepared directly, i.e. without intermediate preparation of a concentrate. For each of the test substances A-1 to A-13, an aqueous solution of 0.15 mol of the test substance and 0.15 g BreakThru® OE-446 was prepared and filled up to a total of 500 g with water. Of bis-cyanamides A-14 and A-15, 0.075 mol each was filled up to 500 g in an analogous manner. These test solutions (in combination with the above 4 species/types Cx) were given the test numbers Cx-A1 to Cx-A15. […] This was done with the following evaluation scale: • Stage 0: […] Flower buds fully developed, but still closed, white petals already visible. […] Flowers fully open or, in the case of grapevine, unfolding of the flower roots (“[…]”) on the fully leafed sprouts.

[2] = system: Table apple, type Zabergäu-Renette (C2); experiment: Greenhouse test, cut apple branches C2 dipped in test solution, bud development stage; type: in vivo, Malus domestica; design: key to Bud development stage, apple branches C2: Stage 0: Buds unchanged; Stage 1: Buds slightly swollen, first green tips visible; Stage 2: strongly swollen, green buds; Stage 3: Buds before breaking open, leaf or flower root already visible; Stage 4: Flower buds fully developed, but still closed, white petals already visible. In the case of the grapevine, stage 4 was the unfolding of the first leaves; Stage 5: Flowers fully open or, in the case of grapevine, unfolding of the flower roots (“Gescheine”) on the fully leafed sprouts; settings: for Good to very good dormancy-breaking effect, apple C2: stage 4 reached or exceeded after 27 days vs negative control; for Dormancy-breaking effect according to the definition, apple C2: stage 4 reached or exceeded after 36 days vs negative control
Description: Greenhouse tests were conducted using cut fruit tree branches placed in water jars and maintained under controlled conditions with temperature regulation at approximately 22° C. and natural lighting. C2: Table Apple, Type […] Table apple: Malus domestica type […] first developed in 1885 as a chance seedling in Hausen a.d. Zaber/Baden-Württemberg and initially grown as 'Hausener Graue […]'. No defined storage type; requires heavy soils (loam). Tree growth initially strong with oblique upright leading branches, later medium with flat branches. Crown broad and flat-spherical with flat fruiting wood. Leaves large, broad oval and with clearly separated tip. Triploid type with late and long-lasting flowering. Yield starting early, medium high and somewhat alternate. […] The test solutions were prepared directly, i.e. without intermediate preparation of a concentrate. For each of the test substances A-1 to A-13, an aqueous solution of 0.15 mol of the test substance and 0.15 g BreakThru® OE-446 was prepared and filled up to a total of 500 g with water. Of bis-cyanamides A-14 and A-15, 0.075 mol each was filled up to 500 g in an analogous manner. These test solutions (in combination with the above 4 species/types Cx) were given the test numbers Cx-A1 to Cx-A15. […] This was done with the following evaluation scale: • Stage 0: […] Flower buds fully developed, but still closed, white petals already visible. […] Flowers fully open or, in the case of grapevine, unfolding of the flower roots (“[…]”) on the fully leafed sprouts.

[3] = system: Table apple, type Boiken apple (C1); experiment: Greenhouse test, cut apple branches C1 dipped in test solution, bud development stage; type: in vivo, Malus domestica; design: key to Bud development stage, apple branches C1: Stage 0: Buds unchanged; Stage 1: Buds slightly swollen, first green tips visible; Stage 2: strongly swollen, green buds; Stage 3: Buds before breaking open, leaf or flower root already visible; Stage 4: Flower buds fully developed, but still closed, white petals already visible. In the case of the grapevine, stage 4 was the unfolding of the first leaves; Stage 5: Flowers fully open or, in the case of grapevine, unfolding of the flower roots (“Gescheine”) on the fully leafed sprouts
Description: Greenhouse tests were conducted using cut fruit tree branches placed in water jars and maintained under controlled conditions with temperature regulation at approximately 22° C. and natural lighting. C1: Table Apple, Type Boiken Apple Table apple: Malus domestica type Boiken first described in 1828 in Bremen after Deichvogt Boiken. Apple type for rough locations and for almost every soil suitable scattered fruit type, whereby heavy soils and not too warm locations are required. Tree growth initially strong, later medium. Older crowns become broadly spherical and are loosely branched. Flowering starting medium-late and long lasting, petals large with little pink. Yield starting late (October) and irregular; with long shelf life and pressure resistance. […] The test solutions were prepared directly, i.e. without intermediate preparation of a concentrate. For each of the test substances A-1 to A-13, an aqueous solution of 0.15 mol of the test substance and 0.15 g BreakThru® OE-446 was prepared and filled up to a total of 500 g with water. Of bis-cyanamides A-14 and A-15, 0.075 mol each was filled up to 500 g in an analogous manner. These test solutions (in combination with the above 4 species/types Cx) were given the test numbers Cx-A1 to Cx-A15. […] This was done with the following evaluation scale: • Stage 0: […] Flower buds fully developed, but still closed, white petals already visible. […] Flowers fully open or, in the case of grapevine, unfolding of the flower roots (“[…]”) on the fully leafed sprouts.

[4] = system: Grape, type Pinot Noir (C4); experiment: Greenhouse test, cut wine sprouts C4 dipped in test solution, bud development stage; type: in vivo, Vitis vinifera subsp. vinifera; design: key to Bud development stage, wine sprouts C4: Stage 0: Buds unchanged; Stage 1: Buds slightly swollen, first green tips visible; Stage 2: strongly swollen, green buds; Stage 3: Buds before breaking open, leaf or flower root already visible; Stage 4: Flower buds fully developed, but still closed, white petals already visible. In the case of the grapevine, stage 4 was the unfolding of the first leaves; Stage 5: Flowers fully open or, in the case of grapevine, unfolding of the flower roots (“Gescheine”) on the fully leafed sprouts; settings: for Dormancy-breaking effect according to the definition, wine C4: stage 4 reached or exceeded after 36 days vs negative control
Description: Greenhouse tests were conducted using cut fruit tree branches placed in water jars and maintained under controlled conditions with temperature regulation at approximately 22° C. and natural lighting. C4: Grape, Type Pinot Noir Grape: Vitis vinifera subsp. vinifera type Pinot Noir is an important and high quality red wine type that has existed for possibly 2000 years. It is cultivated all over the world because the type produces high quality red wines and has sufficient winter frost resistance. The type requires early and good areas with deep, warm, medium-heavy and fertile soils with good water supply. Pinot Noir produces regular, medium-high to high yields. However, there are a large number of clones that differ in yield, berry size and looseness. […] The test solutions were prepared directly, i.e. without intermediate preparation of a concentrate. For each of the test substances A-1 to A-13, an aqueous solution of 0.15 mol of the test substance and 0.15 g BreakThru® OE-446 was prepared and filled up to a total of 500 g with water. Of bis-cyanamides A-14 and A-15, 0.075 mol each was filled up to 500 g in an analogous manner. These test solutions (in combination with the above 4 species/types Cx) were given the test numbers Cx-A1 to Cx-A15. […] This was done with the following evaluation scale: • Stage 0: […] Flower buds fully developed, but still closed, white petals already visible. […] Flowers fully open or, in the case of grapevine, unfolding of the flower roots (“[…]”) on the fully leafed sprouts.

[5] = T1 (14 d), 0.15 mol (A-14, A-15: 0.075 mol) per 500 g solution

Row | Compound | Bud development stage, cherry branches C3 [1, 5] | Bud development stage, cherry branches C3 ([1]; T2 (16 d)) | Bud development stage, cherry branches C3 ([1]; T3 (21 d)) | Bud development stage, cherry branches C3 ([1]; T4 (27 d)) | Bud development stage, cherry branches C3 ([1]; T5 (36 d)) | Bud development stage, cherry branches C3 ([1]; T6 (56 d)) | Bud development stage, apple branches C2 [2, 5] | Bud development stage, apple branches C2 ([2]; T2 (16 d)) | Bud development stage, apple branches C2 ([2]; T3 (21 d)) | Bud development stage, apple branches C2 ([2]; T4 (27 d)) | Bud development stage, apple branches C2 ([2]; T5 (36 d)) | Bud development stage, apple branches C2 ([2]; T6 (56 d)) | Dormancy-breaking effect according to the definition, apple C2 [2] | Bud development stage, apple branches C1 [3, 5] | Bud development stage, apple branches C1 ([3]; T2 (16 d)) | Bud development stage, apple branches C1 ([3]; T3 (21 d)) | Bud development stage, apple branches C1 ([3]; T4 (27 d)) | Bud development stage, apple branches C1 ([3]; T5 (36 d)) | Bud development stage, apple branches C1 ([3]; T6 (56 d)) | Bud development stage, wine sprouts C4 [4, 5] | other results
1 | CCCCCC(=O)NC#N.[Na] [Example A-9, Sodium hexanoyl cyanamide] | 0 | 1 | 2 | 3 | 5 | 5 | 0 | 1 | 4 | 5 | 5 | 5 | dormancy-breaking effect | 0 | 1 | 1 | 2 | 2 | 3 | 0 | Good to very good dormancy-breaking effect, apple C2 [2]: good to very good dormancy-breaking effect; Bud development stage, wine sprouts C4 ([4]; T2 (16 d)): 0; Bud development stage, wine sprouts C4 ([4]; T3 (21 d)): 0; Bud development stage, wine sprouts C4 ([4]; T4 (27 d)): 2; Bud development stage, wine sprouts C4 ([4]; T5 (36 d)): 5; Bud development stage, wine sprouts C4 ([4]; T6 (56 d)): 5; Dormancy-breaking effect according to the definition, wine C4 [4]: dormancy-breaking effect
2 | N#CNC(=O)CCCCC(=O)NC#N.[Na].[Na] [Example A-15, Disodium-(5-(cyano-amidocarbonyl)-pentanoyl-cyanamide)] | 0 | 1 | 1 | 1 | 2 | 4 | 0 | 0 | 1 | 5 | 5 | 5 | dormancy-breaking effect | 0 | 0 | 1 | 2 | 3 | 4 | 0 | Good to very good dormancy-breaking effect, apple C2 [2]: good to very good dormancy-breaking effect; Bud development stage, wine sprouts C4 ([4]; T2 (16 d)): 0; Bud development stage, wine sprouts C4 ([4]; T3 (21 d)): 0; Bud development stage, wine sprouts C4 ([4]; T4 (27 d)): 1; Bud development stage, wine sprouts C4 ([4]; T5 (36 d)): 4; Bud development stage, wine sprouts C4 ([4]; T6 (56 d)): 5; Dormancy-breaking effect according to the definition, wine C4 [4]: dormancy-breaking effect
3 | COC(=O)NC#N.[Na] [Example A-3, Sodium methoxy carbonyl cyanamide] | 0 | 0 | 0 | 1 | 3 | 5 | 0 | 0 | 0 | 2 | 4 | 4 | dormancy-breaking effect | 1 | 1 | 2 | 3 | 4 | 5 | 0 | Dormancy-breaking effect according to the definition, apple C1 ([3]; stage 4 reached or exceeded after 36 days vs negative control): dormancy-breaking effect; Bud development stage, wine sprouts C4 ([4]; T2 (16 d)): 0; Bud development stage, wine sprouts C4 ([4]; T3 (21 d)): 0; Bud development stage, wine sprouts C4 ([4]; T4 (27 d)): 1; Bud development stage, wine sprouts C4 ([4]; T5 (36 d)): 5; Bud development stage, wine sprouts C4 ([4]; T6 (56 d)): 5; Dormancy-breaking effect according to the definition, wine C4 [4]: dormancy-breaking effect
